Test results as given in patent publication US10399945B2, “Tetrahydronaphthyl urea derivative” (MOCHIDA PHARMACEUTICAL CO., LTD., priority 2017, dated 2019).

The compounds below were run against Human TrkA Protein (Homo sapiens (Human), UniProt P04629) (assay: Evaluation of Binding Activity for Human TrkA Protein (TrkA LanthaScreen Eu Kinase Binding Assay)). Settings: TrkA enzyme, Kinase Tracer 236, TR-FRET, 60 minutes at room temperature.
Description: (Pharmacological Experimental Example 1): Evaluation of Binding Activity for Human TrkA Protein
Measurement was carried out using TrkA LanthaScreen (registered trademark) Eu Kinase Binding Assay (ThermoFisher SCIENTIFIC). To a 384 well plate (Corning), 2.5 μL of the test compound having various concentrations and diluted with Kinase buffer (ThermoFisher SCIENTIFIC) and 2.5 μL of 15 nM TrkA enzyme (ThermoFisher SCIENTIFIC) were added. Moreover, […] Eu-anti-His Tag antibody (ThermoFisher SCIENTIFIC) and 5 μL of 30 nM Kinase (registered trademark) Tracer 236 (ThermoFisher SCIENTIFIC) were added, followed by reaction at room temperature for 60 minutes. After the reaction, the fluorescence intensity of Europium (Emission wavelength 615 nm) and TR-FRET (Emission wavelength 665 nm) with an excitation wavelength of 340 nm were measured with EnVision 2100 (PerkinElmer) to calculate the fluorescence ratio as the amount of the test compound and the TrkA enzyme bonded. The inhibitory activity (IC50 value) of each test compound was calculated with the fluorescence ratio of the well to which a solvent was added instead of the test compound being 0% and the fluorescence ratio of the well without addition of the TrkA protein being 100%.
In Table 1, […] mean Compounds 1 to 62 synthesized in accordance with Examples 1 to 62 described later.

Chain of Human TrkA Protein (P04629 33-796): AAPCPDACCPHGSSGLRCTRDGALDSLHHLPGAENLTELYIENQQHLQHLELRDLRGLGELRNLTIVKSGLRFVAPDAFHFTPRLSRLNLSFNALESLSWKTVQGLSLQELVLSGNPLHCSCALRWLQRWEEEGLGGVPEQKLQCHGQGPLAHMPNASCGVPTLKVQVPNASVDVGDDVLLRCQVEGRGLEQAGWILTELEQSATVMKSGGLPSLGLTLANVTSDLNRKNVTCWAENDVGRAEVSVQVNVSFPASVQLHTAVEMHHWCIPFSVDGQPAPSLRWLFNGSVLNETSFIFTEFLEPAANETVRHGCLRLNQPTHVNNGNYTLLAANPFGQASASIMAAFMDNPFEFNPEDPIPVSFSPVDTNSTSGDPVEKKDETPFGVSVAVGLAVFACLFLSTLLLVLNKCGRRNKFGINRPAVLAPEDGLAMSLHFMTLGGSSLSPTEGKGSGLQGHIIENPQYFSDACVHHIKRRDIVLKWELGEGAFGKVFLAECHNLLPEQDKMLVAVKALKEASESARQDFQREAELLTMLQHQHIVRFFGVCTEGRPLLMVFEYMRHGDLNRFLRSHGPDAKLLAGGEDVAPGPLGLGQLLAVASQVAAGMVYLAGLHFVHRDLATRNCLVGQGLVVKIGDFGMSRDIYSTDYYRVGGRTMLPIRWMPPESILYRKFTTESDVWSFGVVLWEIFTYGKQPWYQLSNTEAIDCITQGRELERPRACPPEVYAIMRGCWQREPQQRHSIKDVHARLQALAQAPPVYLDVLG

Compound	IC50 [µM]
Cc1cc(NC(=O)N[C@@H]2c3ccccc3C(C)(C)C[C@H]2O)c(-c2ccccc2)nc1-c1ccc(O)nc1 [Compound 20, 1-(6′-hydroxy-3-methyl-6-phenyl-[2,3′-bipyridin]-5-yl)-3-((1R,2R)-2-hydroxy-4,4-dimethyl-1,2,3,4-tetrahydronaphthalen-1-yl)urea]	≤ 0.05
Cc1cc(NC(=O)N[C@@H]2c3ccccc3C(C)(C)C[C@H]2O)c(C2CCOCC2)nc1-c1cnn(C)c1 (racemic) [Compound 29, rac-1-((1R,2R)-2-hydroxy-4,4-dimethyl-1,2,3,4-tetrahydronaphthalen-1-yl)-3-(5-methyl-6-(1-methyl-1H-pyrazol-4-yl)-2-(tetrahydro-2H-pyran-4-yl)pyridin-3-yl)urea]	≤ 0.05
Cc1cc(NC(=O)N[C@@H]2c3cc(F)c(F)cc3C(C)(C)C[C@H]2O)c(-c2ccccc2)nc1-c1cn[nH]c1 (racemic) [Compound 53, rac-1-((1R,2R)-6,7-difluoro-2-hydroxy-4,4-dimethyl-1,2,3,4-tetrahydronaphthalen-1-yl)-3-(5-methyl-2-phenyl-6-(1H-pyrazol-4-yl)pyridin-3-yl)urea]	≤ 0.05
Cc1cnc(-c2ccccc2)c(NC(=O)N[C@@H]2c3cc(F)c(F)cc3C(C)(C)C[C@H]2O)c1 (racemic) [Compound 37, rac-1-((1R,2R)-6,7-difluoro-2-hydroxy-4,4-dimethyl-1,2,3,4-tetrahydronaphthalen-1-yl)-3-(5-methyl-2-phenylpyridin-3-yl)urea]	≤ 0.05
Cc1cc(NC(=O)N[C@@H]2c3cc(F)c(F)cc3C(C)(C)C[C@H]2O)c(-c2ccccc2)nc1-c1cccc(CO)c1 (racemic) [Compound 46, rac-1-((1R,2R)-6,7-difluoro-2-hydroxy-4,4-dimethyl-1,2,3,4-tetrahydronaphthalen-1-yl)-3-(6-(3-(hydroxymethyl)phenyl)-5-methyl-2-phenylpyridin-3-yl)urea]	≤ 0.05
rac-1-((1R,2R)-6,7-difluoro-2-hydroxy-4,4-dimethyl-1,2,3,4-tetrahydronaphthalen-1-yl)-3-(2-(hydroxymethyl)-3-methyl-6-phenyl-[2,4′-bipyridin]-5-yl)urea [Compound 56]	≤ 0.05

Other lines, results leading:

IC50 [µM]	Compound
≤ 0.05	Cc1cc(NC(=O)N[C@@H]2c3ccccc3C(C)(C)C[C@H]2O)c(-c2ccccc2)nc1C(=O)NCC(C)(C)O (racemic) [Compound 25, rac-N-(2-hydroxy-2-methylpropyl)-5-(3-((1R,2R)-2-hydroxy-4,4-dimethyl-1,2,3,4-tetrahydronaphthalen-1-yl)ureido)-3-methyl-6-phenylpicolinamide]
≤ 0.05	Cc1cnc(-c2ccccc2)c(NC(=O)N[C@@H]2c3ccccc3C(C)(C)C[C@H]2O)c1 (racemic) [Compound 2, rac-1-((1R,2R)-2-hydroxy-4,4-dimethyl-1,2,3,4-tetrahydronaphthalen-1-yl)-3-(5-methyl-2-phenylpyridin-3-yl)urea]
≤ 0.05	Cc1cnc(-c2ccccc2)c(NC(=O)N[C@@H]2c3ccccc3C(C)(C)C[C@H]2O)c1 [Compound 7, 1-((1R,2R)-2-hydroxy-4,4-dimethyl-1,2,3,4-tetrahydronaphthalen-1-yl)-3-(5-methyl-2-phenylpyridin-3-yl)urea]
≤ 0.05	Cc1cc(NC(=O)N[C@@H]2c3cc(F)c(F)cc3C(C)(C)C[C@H]2O)c(-c2ccccc2)nc1-c1cnc(C(C)(C)O)nc1 (racemic) [Compound 54, rac-1-((1R,2R)-6,7-difluoro-2-hydroxy-4,4-dimethyl-1,2,3,4-tetrahydronaphthalen-1-yl)-3-(6-(2-(2-hydroxypropan-2-yl)pyrimidin-5-yl)-5-methyl-2-phenylpyridin-3-yl)urea]
≤ 0.05	Cc1nnc(CNC(=O)c2nc(-c3ccccc3)c(NC(=O)N[C@@H]3c4cc(F)c(F)cc4C(C)(C)C[C@H]3O)cc2C)o1 (racemic) [Compound 41a]
≤ 0.05	Cc1cc(NC(=O)N[C@@H]2c3ccccc3C(C)(C)C[C@H]2O)c(-c2ccccc2)nc1-c1ccc(O)nc1 (racemic) [Compound 6, rac-1-(6′-hydroxy-3-methyl-6-phenyl-[2,3′-bipyridin]-5-yl)-3-((1R,2R)-2-hydroxy-4,4-dimethyl-1,2,3,4-tetrahydronaphthalen-1-yl)urea]
≤ 0.05	CC1(C)C[C@@H](O)[C@H](NC(=O)Nc2cccnc2-c2ccccc2)c2ccccc21 (racemic) [Compound 1, rac-1-((1R,2R)-2-hydroxy-4,4-dimethyl-1,2,3,4-tetrahydronaphthalen-1-yl)-3-(2-phenylpyridin-3-yl)urea]
≤ 0.05	Cc1cc(NC(=O)N[C@@H]2c3cc(F)c(F)cc3C(C)(C)C[C@H]2O)c(-c2ccccc2)nc1-c1cccc(C#N)c1 (racemic) [Compound 47, rac-1-(6-(3-cyanophenyl)-5-methyl-2-phenylpyridin-3-yl)-3-((1R,2R)-6,7-difluoro-2-hydroxy-4,4-dimethyl-1,2,3,4-tetrahydronaphthalen-1-yl)urea]
0.05 to 1	Cc1cc(NC(=O)N[C@@H]2c3cc(F)c(F)cc3C(C)(C)C[C@H]2O)c(C2CCOCC2)nc1C(=O)NCC(C)(C)O (racemic) [Compound 60, rac-5-(3-((1R,2R)-6,7-difluoro-2-hydroxy-4,4-dimethyl-1,2,3,4-tetrahydronaphthalen-1-yl)ureido)-N-(2-hydroxy-2-methylpropyl)-3-methyl-6-(tetrahydro-2H-pyran-4-yl)picolinamide]
